We go through four compounds from patent US20120295838A1, “Selective poly-substituted glycine antibiotics and related compositions” (priority 2008, published 2012).

≈ marks a conversion by molar mass, not a printed value. Numbered stars: 1 amine (or outer) side, 2 acyl side, 3 side chain; on linkers, the order of the positions; unused ones are H or OH. Square brackets hold non-standard residues; d marks the D form. Peptide text beside a SMILES is read from it. X2 = CCC[C@H](C)N(CC(=O)[*:2])[*:1]; Nspe = C[C@H](NCC(=O)O)c1ccccc1; Nphe = O=C(O)CNCc1ccccc1; Nlys = NCCCCNCC(=O)O

The subject of data set [1] is E. coli ATCC 35218. It counts as cell-based. To be noted: ATCC 35218.
Data set [2] has as its system NIH 3T3 mouse fibroblast cells. The experiment in a line: MTS assay, NIH 3T3 cells. In kind it is cell-based. The gist of the method:
(§1)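 NIH/3T3 cells seeded at 5,000 per well, grown a day in DMEM with 10% FBS, then washed and exposed to serially diluted peptoid in HBSS together with MTS reagent. Absorbance at 490 nm read after 3 hours at 37 °C as a measure of metabolic activity; mean of six replicates.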

Data set [3] can be described thus: MTS assay, NIH 3T3 cells. To be noted: mouse, NIH 3T3 fibroblast cells. It counts as cell-based, mouse. The gist of the method: as §1
The test system of data set [4] is Pseudomonas aeruginosa ATCC 27853. It counts as cell-based. To be noted: ATCC 27853. On the procedure: (§2) Antibacterial assays. MICs were determined according to CLSI M7-A6 protocols in a 96-well microtiter plate. In test wells, 50 uL bacterial inoculum (5×10^5 CFU/ml) in Mueller-Hinton broth (MHB) was added to 50 μL peptoid solution in MHB (prepared by 1:2 serial dilutions). Positive controls contained 50 μL inoculum and 50 μL MHB without peptoid. […] MIC values reported were reproducible between three independent experimental replicates, each consisting of two parallel trials. Broad-spectrum antimicrobial susceptibility testing was performed against BSL2 pathogens by Nova Biologicals, Inc. (Conroe, Tex.).
(§3) Broad-spectrum antibacterial assays. MICs of compounds were determined by microdilution procedure in Mueller-Hinton broth (MHB) in accordance with CLSI M7-A6 protocols in a manner similar to that described for the screen antibacterial assays. Inoculated microtiter plates were incubated at 35° C. for 24 hours prior to the result being recorded. Four ATCC strains that were used as standards are recommended by CLSI: Pseudomonas aeruginosa ATCC 27853, Escherichia coli ATCC 25922, Staphylococcus aureus ATCC 29213 and Enterococcus faecalis ATCC 29212. Other strains from the ATCC collection include Proteus vulgaris ATCC 49132, Proteus mirabilis ATCC 35659, Klebsiella pneumoniae ATCC 33495, Enterobacter aerogenes ATCC 35029 and Serratia marcescens ATCC 13880. S. aureus NRS100 (COL) is a well characterized methicillian-resistant S. aureus (MRSA) strain. The strains S. aureus VAN1 and S. aureus VAN2, vancomycin-resistant MRSA strains that were isolated in Michigan and Pennsylvania, were the first vancomycin-resistant strains clinically isolated. S. aureus NRS 119 and S. aureus NRS 120 are linezolid-resistant isolates from the Network on Antimicrobial Resistance in S. aureus (NARSA) collection. E. faecalis 99 and E. faecium 106 are vancomycin-resistant enterococcal strains.

The subject of data set [5] is Enterococcus faecalis 99. In kind it is cell-based. To be noted: 99. As to the method:
as §2, §3

Data set [6] relates to Staphylococcus aureus NRS100 (COL). In kind it is cell-based. Particulars: NRS100 (COL). On the procedure:
as §2, §3

The subject of data set [7] is Staphylococcus aureus ATCC 29213. In kind it is cell-based. Particulars: ATCC 29213. On the procedure: as §2, §3
For data set [8], the system named is Klebsiella pneumoniae ATCC 33495. It counts as cell-based. To be noted: ATCC 33495. As to the method:
as §2, §3

Data set [9] has as its system Staphylococcus aureus NRS119. In kind it is cell-based. To be noted: NRS119. As to the method: as §2, §3
Data set [10] concerns Enterococcus faecium 106. It counts as cell-based. Particulars: 106. On the procedure:
as §2, §3

Data set [11] relates to Proteus vulgaris ATCC 49132. It counts as cell-based. To be noted: ATCC 49132. As to the method: as §2, §3
Data set [12] relates to Enterococcus faecalis ATCC 29212. In kind it is cell-based. Particulars: ATCC 29212. On the procedure: as §2, §3
In data set [13] the test system is Staphylococcus aureus NRS120. In kind it is cell-based. Particulars: NRS120. As to the method:
as §2, §3

Data set [14] has as its system Staphylococcus aureus VAN2. It counts as cell-based. To be noted: VAN2. As to the method: as §2, §3
Data set [15] concerns Staphylococcus aureus VAN1. In kind it is cell-based. To be noted: VAN1. On the procedure: as §2, §3
The test system of data set [16] is Enterobacter aerogenes ATCC 35029. In kind it is cell-based. Particulars: ATCC 35029. As to the method: as §2, §3
Data set [17] relates to Escherichia coli ATCC 25922. In kind it is cell-based. Particulars: ATCC 25922. On the procedure: as §2, §3
The subject of data set [18] is A549 lung epithelial cells. In words: MTS assay, A549 cells. As to the method: The biocompatibility of selected oligomers with A549 lung epithelial cells was evaluated using the MTS [3-(4,5-dimethylthiazol-2-yl)-5-(3-carboxymethoxyphenyl)-2-(4-sulfophenyl)-2H-tetrazolium] assay.
MTS Assays. A549 carcinoma-derived lung epithelial cells (ATTC CCL-185) were cultured in Ham's F12K media (ATTC, Manassas, Va.). A peptoid solution plate (100 μL/well) was prepared by serial dilution of aqueous peptoid stocks in media. Peptoid solutions were transferred onto a 96-well plate of day-old cell monolayers containing 100 μL/well media with 5000 cells/well. MTS reagent (Promega Corporation, Madison, Wis.) (40 μL/well) was added to each well and the plate was incubated at 37° C. for 3 h, after which absorbance at 490 nm was determined. Percent inhibition was determined as [1−(A−Atest blank)/(Acontrol−Ablank)]×100, where A is the absorbance of the test well and Acontrol the average absorbance of wells with cells exposed to media and MTS (no peptoid). Atest blank (media, MTS, and peptoid) and Ablank (media and MTS) were background absorbances measured in the absence of cells. The average of six replicates are reported, and error bars show one standard deviation.

Data set [19] concerns B. subtilis ATCC 6633. In kind it is cell-based. To be noted: ATCC 6633. The method in brief: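 Broth microdilution MICs per CLSI M7-A6 in cation-adjusted Mueller-Hinton broth, using 1×10^6 CFU/mL inoculum added 1:1 to twofold serial peptoid dilutions. Values reproducible across three independent experiments, each with two parallel trials.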
Data set [20] relates to human erythrocytes. In words: Hemolysis assay. In kind it is cell-based. The method in brief: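 Heparinised fresh human erythrocytes, 20 vol % in PBS pH 7.4, mixed 1:1 with 1:2 serially diluted peptoid and incubated 1 h at 37 °C. PBS alone as 0% and 0.2 vol % Triton X-100 as 100% hemolysis; after 1200 g spin for 15 min, supernatant A350 read.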
Data set [21] concerns E. coli JM109. In kind it is cell-based. To be noted: Table 1; SR = (HD10)/(E. coli MIC). The text has this:
An initial set of 15 ampetoid analogs was synthesized to determine whether peptoids are affected by structural and sequence modifications in a manner consistent with AMP activities. The designs for ampetoids in this library were derived from two antibacterial and selective amphipathic dodecamers, 1 and 2. Peptoid 1 [H-(Nlys-Nspe-Nspe)4-NH2] is composed of 2/3 Nspe, the peptoid analog of phenylalanine, and 1/3 Mys, the peptoid analog of lysine (see FIG. 1 for the structures of representative peptoid monomers and corresponding N-substituents). Peptoid 2 [H-(Mys-Nssb-Nspe)4-NH2] contains 1/3 isoleucine-like Nssb monomers in place of Nspe. The variant sequences were designed to effect changes in chirality, length, hydrophobicity, charge, and amphipathicity. All of these compounds were tested for antibacterial activity against representative BSL1 Gram-negative (E. coli JM109) and Gram-positive (B. subtilis BR151) bacterial strains. As an initial measure of selectivity, the lytic activity of the peptoids was determined against human erythrocytes. Table 1 summarizes the sequences synthesized, the solvent composition at RP-HPLC elution as a relative measure of molecular hydrophobicity, and antibacterial and hemolytic activities.
Antibacterial assays. MICs were determined according to CLSI M7-A6 protocols in a 96-well microtiter plate. […]

Regarding `C[C@@H](c1ccccc1)N(CC(N)=O)C(=O)CN(Cc1ccccc1)C(=O)CN(CCCCN)C(=O)CN(C(=O)CN(Cc1ccccc1)C(=O)CN(CCCCN)C(=O)CN(C(=O)CN(Cc1ccccc1)C(=O)CN(CCCCN)C(=O)CN(C(=O)CN(Cc1ccccc1)C(=O)CNCCCCN)[C@@H](C)c1ccccc1)[C@@H](C)c1ccccc1)[C@@H](C)c1ccccc1` [1-Npm2,5,8,11, H-(Nlys-Npm-Nspe)4-NH2] (H-[Nlys][Nphe][Nspe][Nlys][Nphe][Nspe][Nlys][Nphe][Nspe][Nlys][Nphe][Nspe]-NH2), the “E. coli MIC” value in data set [1] came to 6.3 µM. The ID50 in data set [2] is 6.8 µM. In data set [3], this compound came in with a CC50 at 3 h of 6.8 µM. Also, the MIC in data set [4] was found to be 64 µg/mL (≈ 36.3 µM); in [5], 64 µg/mL (≈ 36.3 µM); in data set [6] it was 8 µg/mL (≈ 4.54 µM); in data set [7], 8 µg/mL (≈ 4.54 µM); in data set [8] it was 16 µg/mL (≈ 9.07 µM); in data set [9], 16 µg/mL (≈ 9.07 µM). In addition, the MIC in data set [10] was determined as 4 µg/mL (≈ 2.27 µM); in data set [11], 64 µg/mL (≈ 36.3 µM); in [12], 8 µg/mL (≈ 4.54 µM); in data set [13] it was 16 µg/mL (≈ 9.07 µM); in data set [14], 8 µg/mL (≈ 4.54 µM); in data set [15], 8 µg/mL (≈ 4.54 µM). Also, the MIC amounted to 64 µg/mL (≈ 36.3 µM) in [16] and 8 µg/mL (≈ 4.54 µM) in data set [17].
Regarding `C[C@@H](c1ccccc1)N(CC(N)=O)C(=O)CN(C(=O)CN(CCCCN)C(=O)CN(C(=O)CN(C(=O)CN(CCCCN)C(=O)[C@@H]1CCCN1C(=O)CN(C(=O)CN(CCCCN)C(=O)CN(C(=O)CN(C(=O)CNCCCCN)[C@@H](C)c1ccccc1)[C@@H](C)c1ccccc1)[C@@H](C)c1ccccc1)[C@@H](C)c1ccccc1)[C@@H](C)c1ccccc1)[C@@H](C)c1ccccc1` [1-Pro6, H-Nlys-Nspe-Nspe-Nlys-Nspe-L-Pro-(Nlys-Nspe-Nspe)2-NH2] (H-[Nlys][Nspe][Nspe][Nlys][Nspe]P[Nlys][Nspe][Nspe][Nlys][Nspe][Nspe]-NH2), the “ID10 relative to that of pexiganan” value in data set [18] came out at 10 times. Further, in data set [1], the “E. coli MIC” value stood at 12.5 µM and the “MIC for E. coli ATCC 35218” value is 12.5 µM. Besides, the “MIC for B. subtilis ATCC 6633” value in [19] came to 1.6 µM. For the same compound, the CC50 at 3 h in data set [3] stood at 18 µM. In [20], this compound yielded an HD10 of 83 µM and an HD50 of more than 200 µM.
Take `CCC[C@H](C)N(CC(=O)N(CC(N)=O)[C@@H](C)c1ccccc1)C(=O)CN(CCCCN)C(=O)CN(C(=O)CN(C(=O)CN(CCCCN)C(=O)CN(C(=O)CN(C(=O)CN(CCCCN)C(=O)CN(C(=O)CN(C(=O)CNCCCCN)[C@@H](C)CCC)[C@@H](C)c1ccccc1)[C@@H](C)CCC)[C@@H](C)c1ccccc1)[C@@H](C)CCC)[C@@H](C)c1ccccc1` [2-Nsap2,5,8,11, H-(Nlys-Nsap-Nspe)4-NH2] (H-[Nlys][X2][Nspe][Nlys][X2][Nspe][Nlys][X2][Nspe][Nlys][X2][Nspe]-NH2): in data set [21], the “Selectivity ratio (SR)” value is more than 16.
As for `C[C@@H](c1ccccc1)N(CC(N)=O)C(=O)CN(C(=O)CN(CCCCN)C(=O)CN(C(=O)CN(C(=O)CN(CCCCN)C(=O)CN(C(=O)CN(C(=O)CN(CCCCN)C(=O)CN(C(=O)CN(C(=O)CN(CCCCN)C(=O)CN(C(=O)CN(C(=O)CNCCCCN)[C@@H](C)c1ccccc1)[C@@H](C)c1ccccc1)[C@@H](C)c1ccccc1)[C@@H](C)c1ccccc1)[C@@H](C)c1ccccc1)[C@@H](C)c1ccccc1)[C@@H](C)c1ccccc1)[C@@H](C)c1ccccc1)[C@@H](C)c1ccccc1` [115 mer, H-(Nlys-Nspe-Nspe)5-NH2], the “cytotoxicity (in words)” value in data set [18] (A549 lung epithelial cells, MTS, FIG. 2) is given as “no worse than pexiganan”.
